Legend:
[1] = system: total serum cholesterol; assay: Reduction of serum cholesterol level (total serum cholesterol, Liebermann-Burchard auto-analyzer); type: in vivo, male laboratory rats; settings: rat
Description: 1. Reduction of serum cholesterol level
85 male laboratory rats having a body weight of about 250 gm. The animals were individually kept in Makrolon-cages under controlled conditions. Food and water were freely accessible to the animals at all times, except on the day on which the blood samples were taken.
The test compounds were administered once daily per os by means of an esophageal sound.
Determination of total cholesterol in serum (mgm/100 ml) with the auto-analyzer according to Liebermann-Burchard (see J. Levine et al, Technicon-Symposium, 1967, Vol. 1, pg. 25).
The total serum cholesterol was determined in all test animals prior to the beginning of the test (day O), as well as on the 8th, 14th and 21st day. The blood sample was taken from the retrobulbar venous plexus. The animals were fasted for about 16 hours prior to determination of the serum cholesterol.

[2] = system: adult laboratory mice of the NMRI-strain; assay: CNS-Depression: Sliding test (loss of holding reflex on inclined glass plate); type: in vivo; settings: po, mouse; dose at which 50% of animals begin to slide off the glass plate; Probit-method
Description: A statistically significant number of adult laboratory mice of the NMRI-strain are used as test animals. The test compound is administered perorally as a suspension in tylose by means of an esophageal sound, and the animal is placed on an inclined plate of glass. If the administered dose of the test compound has a CHS-depressing effect upon the animal, the treated mouse loses its normal holding reflex and slides off the plate. The test is repeated at varying dosage levels, and a median effective dose (ED50) is determined by the so-called Probit-method, i.e. the dose at which 50% of the test animals begin to slide off the glass plate.

[3] = system: adult laboratory mice of the NMRI-strain; assay: CNS-Depression: Ataxia (atactic walking); type: in vivo; settings: po, mouse; dose at which ataxia occurs in 50% of the animals; Probit-method
Description: A statistically significant number of adult laboratory mice of the NMRI-strain are used as the test animals. The test compound is administered perorally as a suspension in tylose by means of an esophageal sound, and the treated animal is observed for evidence of atactic (uncoordinated) walking. The test is repeated at varying dosage levels, and a median effective dose (ED50) is determined by the Probit-method, i.e. the dose at which ataxia occurs in 50% of the animals.

[4] = day 0 (prior to the beginning of the test, baseline), group of 25 mgm/kg once daily per os
[5] = day 8, 25 mgm/kg once daily per os
[6] = day 14, 25 mgm/kg once daily per os
[7] = day 21, 25 mgm/kg once daily per os
[8] = day 0 (prior to the beginning of the test, baseline), group of 50 mgm/kg once daily per os
[9] = day 8, 50 mgm/kg once daily per os
[10] = day 14, 50 mgm/kg once daily per os
[11] = day 21, 50 mgm/kg once daily per os

| Compound | Average value of total serum cholesterol [1, 4] | Average value of total serum cholesterol [1, 5] | Average value of total serum cholesterol [1, 6] | Average value of total serum cholesterol [1, 7] | ED50 [2] | ED50 [3] | Average value of total serum cholesterol [1, 8] | Average value of total serum cholesterol [1, 9] | Average value of total serum cholesterol [1, 10] | Average value of total serum cholesterol [1, 11] |
| --- | --- | --- | --- | --- | --- | --- | --- | --- | --- | --- |
| CC(Cc1ccc2c(c1)OCO2)N1CCN(c2ccc(Cl)cc2Cl)CC1 (stereo not drawn) [A, n-[1-(3,4-methylenedioxy-phenyl)-propyl-(2)]-N'-(2,4-dichloro-phenyl)-piperazine] | 96.7 mgm/100 ml | 27.5 mgm/100 ml | 12.5 mgm/100 ml | 13.0 mgm/100 ml | 190 mg/kg | 160 mg/kg | – | – | – | – |
| COc1ccc(N2CCN(C(C)Cc3ccc4c(c3)OCO4)CC2)c(C)c1 (stereo not drawn) [B, n-[1-(3,4-methylenedioxy-phenyl)-propyl(2)]-N'-(2-methyl-4-methoxy-phenyl)-piperazine] | 97.9 mgm/100 ml | 35.2 mgm/100 ml | 21.3 mgm/100 ml | 21.2 mgm/100 ml | 960 mg/kg | 120 mg/kg | – | – | – | – |
| CC(Cc1ccc2c(c1)OCO2)N1CCN(c2ccccc2Cl)CC1 (stereo not drawn) [Compound C, n-[1-(3,4-methylenedioxy-phenyl)-propyl(2)]-N'-(2-chlorophenyl)-piperazine] | 38.3 mgm/100 ml | 31.7 mgm/100 ml | 24.3 mgm/100 ml | 26.2 mgm/100 ml | 2.2 mg/kg | 2.2 mg/kg | – | – | – | – |
| COc1ccccc1N1CCN(C(C)Cc2ccc3c(c2)OCO3)CC1 (stereo not drawn) [Compound D] | – | – | – | – | > 14 mg/kg | 39 mg/kg | 112.9 mgm/100 ml | 87.3 mgm/100 ml | 86.3 mgm/100 ml | 82.1 mgm/100 ml |
| Cc1cccc(C)c1N1CCN(C(C)Cc2ccc3c(c2)OCO3)CC1 (stereo not drawn) [E, n-[1-(3,4-methylenedioxy-phenyl)-propyl(2)]-N'-(2,6-dimethyl-phenyl)-piperazine] | – | – | – | – | 25 mg/kg | 105 mg/kg | 107.3 mgm/100 ml | 71.2 mgm/100 ml | 61.7 mgm/100 ml | 63.5 mgm/100 ml |
